ChEMBL document CHEMBL5500371, “Arginine and tryptophan-rich dendritic antimicrobial peptides that disrupt membranes for bacterial infection in vivo” (Eur J Med Chem, 2024)
In brackets after ≈: the same amount, converted by molar mass. Where a SMILES comes first, the peptide text is derived from it. Side-chain parts run from the residue outwards.

Assays:
[1] = tested on: Staphylococcus aureus; test: Antibacterial activity against Staphylococcus aureus ATCC 25923 assessed as inhibition of bacterial growth incubated for 20 hrs by broth microdilution method; format: functional
[2] = tested on: Bacillus subtilis; test: Antibacterial activity against Bacillus subtilis ATCC 23857 assessed as inhibition of bacterial growth incubated for 20 hrs by broth microdilution method; format: functional
[3] = tested on: Escherichia coli; test: Antibacterial activity against Escherichia coli ATCC 25922 assessed as inhibition of bacterial growth incubated for 20 hrs by broth microdilution method; format: functional
[4] = tested on: Erythrocyte; test: Hemolytic activity in mouse erythrocytes assessed as 10% hemolysis incubated for 1 hr by absorbance based analysis; format: toxicity, cell-based
[5] = Cytotoxicity against HEK293T cells assessed as cell death measured after 1 hr by resazurin dye based analysis; format: toxicity, HEK-293T; details: human, HEK293T cells
[6] = tested on: Pseudomonas aeruginosa; test: Antibacterial activity against Pseudomonas aeruginosa ATCC 27853 assessed as inhibition of bacterial growth incubated for 20 hrs by broth microdilution method; format: functional
[7] = tested on: Klebsiella pneumoniae; test: Antibacterial activity against Klebsiella pneumoniae ATCC 700603 assessed as inhibition of bacterial growth incubated for 20 hrs by broth microdilution method; format: functional
[8] = tested on: Acinetobacter baumannii; test: Antibacterial activity against Acinetobacter baumannii ATCC 19606 assessed as inhibition of bacterial growth incubated for 20 hrs by broth microdilution method; format: functional

Row | SMILES | MIC [1] [µM] | MIC [2] [µM] | MIC [3] [µM] | MIC [6] [µM] | MIC [7] [µM] | MIC [8] [µM] | MHC10 [4] [µM] | CC50 at 1 h [5] [µM]
1 | N=C(N)NCCC[C@H](N)C(=O)NCCCC[C@H](NC(=O)[C@@H](N)CCCNC(=N)N)C(=O)N[C@@H](Cc1c[nH]c2ccccc12)C(N)=O (H-Arg-Lys(Arg)-Trp-NH2) | > 128 | > 128 | > 128 | > 128 | > 128 | > 128 | > 256 | > 128
2 | N=C(N)NCCC[C@H](N)C(=O)NCCCC[C@H](NC(=O)[C@@H](N)CCCNC(=N)N)C(=O)N[C@@H](Cc1c[nH]c2ccccc12)C(=O)N[C@@H](Cc1c[nH]c2ccccc12)C(N)=O (H-RK(Arg)WW-NH2) | > 128 | 128 (≈ 106 µg/mL) | > 128 | > 128 | > 128 | > 128 | > 256 | > 128
3 | N=C(N)NCCC[C@H](NC(=O)[C@@H](N)CCCNC(=N)N)C(=O)N[C@@H](CCCCN)C(=O)N[C@@H](Cc1c[nH]c2ccccc12)C(N)=O (H-RRKW-NH2) | > 128 | > 128 | > 128 | > 128 | > 128 | > 128 | > 256 | > 128
4 | N=C(N)NCCC[C@H](NC(=O)[C@H](CCCNC(=N)N)NC(=O)[C@@H](N)CCCNC(=N)N)C(=O)NCCCC[C@H](NC(=O)[C@H](CCCNC(=N)N)NC(=O)[C@H](CCCNC(=N)N)NC(=O)[C@@H](N)CCCNC(=N)N)C(=O)N[C@@H](Cc1c[nH]c2ccccc12)C(=O)N[C@@H](Cc1c[nH]c2ccccc12)C(=O)N[C@@H](Cc1c[nH]c2ccccc12)C(=O)N[C@@H](Cc1c[nH]c2ccccc12)C(=O)N[C@@H](Cc1c[nH]c2ccccc12)C(=O)N[C@@H](Cc1c[nH]c2ccccc12)C(N)=O (H-RRRK([Arg-Arg-Arg])WWWWWW-NH2) | 32 (≈ 70.4 µg/mL) | 16 (≈ 35.2 µg/mL) | 32 (≈ 70.4 µg/mL) | 32 (≈ 70.4 µg/mL) | 32 (≈ 70.4 µg/mL) | 32 (≈ 70.4 µg/mL) | 22.12 | 34
5 | N=C(N)NCCC[C@H](NC(=O)[C@H](CCCNC(=N)N)NC(=O)[C@@H](N)CCCNC(=N)N)C(=O)NCCCC[C@H](NC(=O)[C@H](CCCNC(=N)N)NC(=O)[C@H](CCCNC(=N)N)NC(=O)[C@@H](N)CCCNC(=N)N)C(=O)N[C@@H](Cc1c[nH]c2ccccc12)C(=O)N[C@@H](Cc1c[nH]c2ccccc12)C(=O)N[C@@H](Cc1c[nH]c2ccccc12)C(=O)N[C@@H](Cc1c[nH]c2ccccc12)C(=O)N[C@@H](Cc1c[nH]c2ccccc12)C(=O)N[C@@H](Cc1c[nH]c2ccccc12)C(=O)N[C@@H](Cc1c[nH]c2ccccc12)C(N)=O (H-RRRK([Arg-Arg-Arg])WWWWWWW-NH2) | 32 (≈ 76.3 µg/mL) | 16 (≈ 38.2 µg/mL) | 64 (≈ 153 µg/mL) | 16 (≈ 38.2 µg/mL) | 64 (≈ 153 µg/mL) | 16 (≈ 38.2 µg/mL) | 12.98 | 53.5
6 | N=C(N)NCCC[C@H](NC(=O)[C@H](CCCCNC(=O)[C@@H](N)Cc1c[nH]c2ccccc12)NC(=O)[C@@H](N)Cc1c[nH]c2ccccc12)C(N)=O (H-Trp-Lys(Trp)-Arg-NH2) | > 128 | 128 (≈ 86.2 µg/mL) | > 128 | > 128 | > 128 | > 128 | > 256 | > 128
7 | N=C(N)NCCC[C@H](NC(=O)[C@H](CCCNC(=N)N)NC(=O)[C@H](CCCCNC(=O)[C@@H](N)Cc1c[nH]c2ccccc12)NC(=O)[C@@H](N)Cc1c[nH]c2ccccc12)C(N)=O (H-WK(Trp)RR-NH2) | > 128 | > 128 | > 128 | > 128 | > 128 | > 128 | > 256 | > 128
8 | N=C(N)NCCC[C@H](NC(=O)[C@H](CCCNC(=N)N)NC(=O)[C@H](CCCNC(=N)N)NC(=O)[C@H](CCCCNC(=O)[C@@H](N)Cc1c[nH]c2ccccc12)NC(=O)[C@@H](N)Cc1c[nH]c2ccccc12)C(N)=O (H-WK(Trp)RRR-NH2) | > 128 | > 128 | > 128 | > 128 | > 128 | > 128 | > 256 | > 128
9 | N=C(N)NCCC[C@H](NC(=O)[C@H](CCCCN)NC(=O)[C@H](Cc1c[nH]c2ccccc12)NC(=O)[C@@H](N)Cc1c[nH]c2ccccc12)C(N)=O (H-WWKR-NH2) | > 128 | > 128 | > 128 | > 128 | > 128 | > 128 | > 256 | > 128
10 | CN[C@H](CC(C)C)C(=O)N[C@H]1C(=O)N[C@@H](CC(N)=O)C(=O)N[C@H]2C(=O)N[C@H]3C(=O)N[C@H](C(=O)N[C@H](C(=O)O)c4cc(O)cc(O)c4-c4cc3ccc4O)[C@H](O)c3ccc(c(Cl)c3)Oc3cc2cc(c3O[C@@H]2O[C@H](CO)[C@@H](O)[C@H](O)[C@H]2O[C@H]2C[C@](C)(N)[C@H](O)[C@H](C)O2)Oc2ccc(cc2Cl)[C@H]1O [VANCOMYCIN] | < 1 | < 1 | 64 (≈ 92.8 µg/mL) | > 128 | 128 (≈ 186 µg/mL) | 64 (≈ 92.8 µg/mL) |  | 

More lines, main results first:

Row | MIC [1] [µM] | MIC [2] [µM] | MIC [3] [µM] | MIC [6] [µM] | MIC [7] [µM] | MIC [8] [µM] | SMILES | MHC10 [4] [µM] | CC50 at 1 h [5] [µM]
11 | 16 (≈ 32.2 µg/mL) | 8 (≈ 16.1 µg/mL) | 16 (≈ 32.2 µg/mL) | 16 (≈ 32.2 µg/mL) | 16 (≈ 32.2 µg/mL) | 32 (≈ 64.4 µg/mL) | N=C(N)NCCC[C@H](NC(=O)[C@H](CCCNC(=N)N)NC(=O)[C@@H](N)CCCNC(=N)N)C(=O)NCCCC[C@H](NC(=O)[C@H](CCCNC(=N)N)NC(=O)[C@H](CCCNC(=N)N)NC(=O)[C@@H](N)CCCNC(=N)N)C(=O)N[C@@H](Cc1c[nH]c2ccccc12)C(=O)N[C@@H](Cc1c[nH]c2ccccc12)C(=O)N[C@@H](Cc1c[nH]c2ccccc12)C(=O)N[C@@H](Cc1c[nH]c2ccccc12)C(=O)N[C@@H](Cc1c[nH]c2ccccc12)C(N)=O | 91.08 | 41.4
12 | 16 (≈ 37.7 µg/mL) | 16 (≈ 37.7 µg/mL) | 32 (≈ 75.4 µg/mL) | 16 (≈ 37.7 µg/mL) | 64 (≈ 151 µg/mL) | 32 (≈ 75.4 µg/mL) | N=C(N)NCCC[C@H](NC(=O)[C@H](CCCNC(=N)N)NC(=O)[C@H](CCCNC(=N)N)NC(=O)[C@H](CCCNC(=N)N)NC(=O)[C@H](CCCNC(=N)N)NC(=O)[C@H](CCCNC(=N)N)NC(=O)[C@H](CCCNC(=N)N)NC(=O)[C@H](CCCCNC(=O)[C@H](Cc1c[nH]c2ccccc12)NC(=O)[C@H](Cc1c[nH]c2ccccc12)NC(=O)[C@@H](N)Cc1c[nH]c2ccccc12)NC(=O)[C@H](Cc1c[nH]c2ccccc12)NC(=O)[C@H](Cc1c[nH]c2ccccc12)NC(=O)[C@@H](N)Cc1c[nH]c2ccccc12)C(N)=O | 17.53 | 41.9
13 | 32 (≈ 32.5 µg/mL) | 32 (≈ 32.5 µg/mL) | > 128 | 32 (≈ 32.5 µg/mL) | > 128 | > 128 | N=C(N)NCCC[C@H](N)C(=O)NCCCC[C@H](NC(=O)[C@@H](N)CCCNC(=N)N)C(=O)N[C@@H](Cc1c[nH]c2ccccc12)C(=O)N[C@@H](Cc1c[nH]c2ccccc12)C(=O)N[C@@H](Cc1c[nH]c2ccccc12)C(N)=O (H-RK(Arg)WWW-NH2) | > 256 | > 128
14 | 16 (≈ 21.3 µg/mL) | 4 (≈ 5.31 µg/mL) | 16 (≈ 21.3 µg/mL) | 16 (≈ 21.3 µg/mL) | 64 (≈ 85 µg/mL) | > 128 | N=C(N)NCCC[C@H](NC(=O)[C@@H](N)CCCNC(=N)N)C(=O)NCCCC[C@H](NC(=O)[C@H](CCCNC(=N)N)NC(=O)[C@@H](N)CCCNC(=N)N)C(=O)N[C@@H](Cc1c[nH]c2ccccc12)C(=O)N[C@@H](Cc1c[nH]c2ccccc12)C(=O)N[C@@H](Cc1c[nH]c2ccccc12)C(N)=O (H-RRK([Arg-Arg])WWW-NH2) | > 256 | > 128
15 | 16 (≈ 27.2 µg/mL) | 8 (≈ 13.6 µg/mL) | 16 (≈ 27.2 µg/mL) | 16 (≈ 27.2 µg/mL) | 16 (≈ 27.2 µg/mL) | 32 (≈ 54.4 µg/mL) | N=C(N)NCCC[C@H](NC(=O)[C@@H](N)CCCNC(=N)N)C(=O)NCCCC[C@H](NC(=O)[C@H](CCCNC(=N)N)NC(=O)[C@@H](N)CCCNC(=N)N)C(=O)N[C@@H](Cc1c[nH]c2ccccc12)C(=O)N[C@@H](Cc1c[nH]c2ccccc12)C(=O)N[C@@H](Cc1c[nH]c2ccccc12)C(=O)N[C@@H](Cc1c[nH]c2ccccc12)C(=O)N[C@@H](Cc1c[nH]c2ccccc12)C(N)=O (H-RRK([Arg-Arg])WWWWW-NH2) | 51.32 | 58.8
16 | 16 (≈ 21.7 µg/mL) | 16 (≈ 21.7 µg/mL) | > 128 | > 128 | > 128 | 128 (≈ 174 µg/mL) | N=C(N)NCCC[C@H](NC(=O)[C@H](CCCNC(=N)N)NC(=O)[C@H](CCCNC(=N)N)NC(=O)[C@H](CCCCNC(=O)[C@H](Cc1c[nH]c2ccccc12)NC(=O)[C@@H](N)Cc1c[nH]c2ccccc12)NC(=O)[C@H](Cc1c[nH]c2ccccc12)NC(=O)[C@@H](N)Cc1c[nH]c2ccccc12)C(N)=O (H-WWK([Trp-Trp])RRR-NH2) | > 256 | > 128
17 | 8 (≈ 13.4 µg/mL) | 8 (≈ 13.4 µg/mL) | 8 (≈ 13.4 µg/mL) | 32 (≈ 53.5 µg/mL) | 64 (≈ 107 µg/mL) | 32 (≈ 53.5 µg/mL) | N=C(N)NCCC[C@H](NC(=O)[C@H](CCCNC(=N)N)NC(=O)[C@H](CCCNC(=N)N)NC(=O)[C@H](CCCNC(=N)N)NC(=O)[C@H](CCCNC(=N)N)NC(=O)[C@H](CCCCNC(=O)[C@H](Cc1c[nH]c2ccccc12)NC(=O)[C@@H](N)Cc1c[nH]c2ccccc12)NC(=O)[C@H](Cc1c[nH]c2ccccc12)NC(=O)[C@@H](N)Cc1c[nH]c2ccccc12)C(N)=O (H-WWK([Trp-Trp])RRRRR-NH2) | > 256 | > 128
